Results: US20160051514A1, “METHODS FOR TREATMENT OF CARDIOMYOPATHY” (THE BRIGHAM AND WOMEN'S HOSPITAL, INC., priority 2013, published 2016)
“Also recorded” adds a separate entry of the source.

Key:
[1] = system: 2057del2 plakoglobin zebrafish; experiment: Survival and cardiac physiology in the zebrafish model of ACM; type: in vivo; details: data not shown
Description: In-house software (implemented in MATLAB™) was used to determine heart rate, while measurements of ventricular long and short axes in both diastole and systole were obtained using ImageJ™. Cardiac output was measured as diastolic minus systolic ventricular volume multiplied by heart rate, as outlined by Shin et al (30). Fractional shortening was calculated as end-diastolic diameter minus end-systolic diameter divided by end-diastolic diameter.
Survival studies: Embryos were kept in petri dishes until 7 dpf and then transferred to nursery tanks with larval food. Observations for phenotype and survival were recorded for several weeks. Data are presented as a Kaplan-Meier curve using Graphpad™ software.

[2] = system: neonatal rat ventricular myocytes expressing 2057del2 plakoglobin; experiment: Immunofluorescence of intercalated disk proteins in neonatal rat ventricular myocytes; type: cell-based; details: cells expressing 2057del2 plakoglobin; 5 μM, 24 hr
Description: Neonatal rat ventricular myocyte isolation and culture, stretch protocols: Primary cardiac myocyte cultures were prepared from ventricles of 1-day-old Wistar rat pups (Charles River) as previously described.^9 Cells were plated on collagen-coated plastic chamber slides at a density of […] cells/cm^2 and grown for 4 days prior to experimentation. In selected experiments, monolayers grown on collagen--coated silicone membranes were subjected to linear pulsatile stretch using a custom-designed apparatus as described in previous studies.'° Cells were stretched to 110% of resting length at a. frequency of 3 Hz for 1-4 hr in serum-free medium. In other experiments cultures were incubated with reagents including pifitlirin A (5 μM, 1 hr) and SB216763 (5 μM, 24 hr) prior to experimentation. All protocols were approved by the Institutional Animal Care and Use Committee (IACUC).
Viral transfection: A recombinant adenoviral construct expressing 2057del2-plakoglobin was created with the ViraPower Adenoviral Expression system (Invitrogen) using the pAd/CMV/V5-DEST vector through LR clonase-mediated recombination. The V5-tag was used to identify the mutant protein and distinguish it from wildtype plakoglobin. Two days post-plating, monolayers were exposed to viral solution (1:130 dilution in serum-free media, 37° C.) for 1 hr after which viral solution was replaced with complete medium in the presence or absence of reagents.
Immunofluoresence staining and microscopy in cultured cells: Cultures were rinsed in serum-free medium and fixed in 4% paraformaldehyde at room temperature for 5 min or in acetone at −20° C. for 10 min. Fixed cells were immunostained with mouse monoclonal anti-plakoglobin (Sigma), anti-N-cadhcrin (Sigma), anti-Cx43 (Millipore), anti-desmopla.kin (Fitzgerald), anti-SAP97 (Santa Cruz Biotechnology) antibodies and anti-Nav1.5 (kindly provided by Dr. Hugues Abriel, University of Bern, Switzerland) antibodies. Specific immunoreactive signal was detected by laser scanning confocal microscopy as previously described.”
Neonatal rat ventricular myocyte isolation, culture, stretch protocols: Primary cardiac myocyte cultures were prepared from ventricles of 1-day-old Wistar rat pups (Charles River) as previously described (36). Cells were plated on collagen-coated plastic chamber slides at a density of 2.4×10^5 cells/cm2 and grown for 4 days prior to experimentation. In selected experiments, monolayers grown on collagen-coated silicone membranes were subjected to linear pulsatile stretch using a custom-designed apparatus as described in previous studies (35). Cells were stretched to 110% of resting length at a frequency of 3 Hz for 1-4 hr in serum-free medium. In other experiments cultures were incubated with reagents including pifithrin A (5 μM, 1 hr) and SB216763 (0.1-10 μM for 12 or 24 hr) prior to experimentation. Vehicle controls (DMSO) were included in all experiments.
Viral transfection: A recombinant adenoviral construct expressing 2057del2 plakoglobin was created with the ViraPower Adenoviral Expression™ system (Invitrogen) using the pAd/CMV/V5-DEST vector through LR clonase-mediated recombination. The V5-tag was used to identify the mutant protein and distinguish it from wildtype plakoglobin. Two days post-plating, monolayers were exposed to viral solution (1:130 dilution in serum-free media, 37° C.) for 1 hr after which viral solution was replaced with complete medium in the presence or absence of reagents. Immunofluorescence staining and microscopy in cultured cells: Cultures were rinsed in serum-free medium and fixed in 4% paraformaldehyde at 25° C. for 5 min or in acetone at −20° C. for 10 min. Fixed cells were immunostained with mouse monoclonal anti-plakoglobin (Sigma), anti-N-cadherin (Sigma), anti-Cx43 (Millipore), anti-desmoplakin (Fitzgerald), anti-SAP97 (Santa Cruz Biotechnology) antibodies and anti-Nav1.5 antibodies (rabbit polyclonal).

[3] = system: neonatal rat ventricular myocytes expressing 2057del2 plakoglobin; experiment: TUNEL assay of myocyte apoptosis; type: cell-based
From the text: (§1) TUNEL assay: Apoptotic cells in cultures were detected by terminal deoxynucleotidyl transferase-mediated biotinylated UTP nick end-labeling (TUNEL) assay using the ApopTag™ Fluorescein Direct in Situ Apoptosis Detection Kit (Millipore) as previously described.^9 Nuclei were stained with DAPI, and TUNEL-positive and total nuclei were counted under a laser scanning confocal microscope in 5 fields per chamber.
as §1, with “ApopTag” for “ApopTag™”, “KitTM” for “Kit”, “according to the manufacturer's instructions.” for “as previously described.^9”, “DAPI;” for “DAPI, and”, “chamber or silicone membrane in stretch experiments.” for “chamber.”

Compound	Effectiveness of other GSK-3β inhibitors in attenuating the mutant phenotype compared with SB216763 [1]	Subcellular distribution of plakoglobin immunoreactive signal (junctional vs intracellular/nuclear) [2]	also measured
O=C1Nc2cc(Br)ccc2/C1=C1/Nc2ccccc2/C1=N\O [BIO, 6-bromoindirubin-3′-oxime, reference compound]	do not exhibit the therapeutic benefits; also recorded: none of which were as effective		
Cn1cc(C2=C(c3coc4ccccc34)C(=O)NC2=O)c2cc(Br)ccc21 [BIP 135, reference compound]	none of which were as effective		
Cc1c[nH]c(-c2cnc(NCCNc3ccc(C#N)cn3)nc2-c2ccc(Cl)cc2Cl)n1 [CHIR99021, reference compound]	do not exhibit the therapeutic benefits; also recorded: none of which were as effective	intensified plakoglobin signal in nuclei	
[Cl-].[Li+] [LiC1, reference compound]	none of which were as effective		
O=C(Nc1ccc([N+](=O)[O-])cc1Cl)c1cc(Cl)ccc1O [niclosamide, reference compound]		increased nuclear localization of plakoglobin	
Cc1ccc(C(=O)Cn2c3c(sc2=N)CCCC3)cc1 [pifithrin-A, reference compound]			Apoptosis in transfected myocytes exposed to stretch ([3]; 4 hr of stretch, vs stretch without inhibitor): significantly reduced apoptosis; Apoptosis in cells expressing 2057del2 plakoglobin ([3]; pifithrin-A 5 μM): could be prevented
